Measured values from patent US10028942B2 (priority 2013, dated 2018).

Biological target: T1, DLK (Homo sapiens, UniProt Q12852)
T1 sequence (Q12852 1-520): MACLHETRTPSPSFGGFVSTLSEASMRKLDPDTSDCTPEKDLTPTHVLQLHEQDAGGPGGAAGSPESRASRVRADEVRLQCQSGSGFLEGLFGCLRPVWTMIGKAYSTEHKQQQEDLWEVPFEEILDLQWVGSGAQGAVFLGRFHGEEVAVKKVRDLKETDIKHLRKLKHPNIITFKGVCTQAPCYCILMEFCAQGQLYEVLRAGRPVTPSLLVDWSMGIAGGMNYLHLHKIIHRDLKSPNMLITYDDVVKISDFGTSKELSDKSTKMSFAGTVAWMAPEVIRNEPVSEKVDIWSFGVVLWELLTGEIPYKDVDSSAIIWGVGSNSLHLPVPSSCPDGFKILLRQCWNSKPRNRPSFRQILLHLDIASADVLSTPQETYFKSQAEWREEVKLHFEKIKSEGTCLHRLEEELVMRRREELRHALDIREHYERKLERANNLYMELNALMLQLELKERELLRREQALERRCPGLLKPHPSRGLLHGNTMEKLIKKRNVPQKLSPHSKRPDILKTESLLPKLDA
Conditions: read-out: DLK (Ki) μM; TR-FRET; 5 nM GST-tagged DLK (catalytic domain aa 1-520), 40 nM HIS-MKK4 K131M substrate, 30 μM ATP, 60 minutes

Compound | Ki [µM]
COCCN1C[C@@H]2[C@H](C1)[C@H]2c1cc(-c2cnc(N)c(C(F)(F)F)c2)nn1C(C)C [Compound 117, 5-(1-isopropyl-5-((1R,5 S,6r)-3-(2-methoxyethyl)-3-azabicyclo[3.1.0]hexan-6-yl)-1H-pyrazol-3-yl)-3-(trifluoromethyl)pyridin-2-amine] | 0.0094
COCCN1C[C@@H]2[C@H](C1)[C@H]2c1cc(-c2cnc(N)c(Cl)c2)nn1C(C)C [Compound 118, 3-chloro-5-(1-isopropyl-5-((1R,5S,6r)-3-(2-methoxyethyl)-3-azabicyclo[3.1.0]hexan-6-yl)-1H-pyrazol-3-yl) pyridin-2-amine] | 0.034
COCCN1C[C@@H]2[C@H](C1)[C@H]2c1cc(-c2cnc(N)c(Cl)c2)nn1CC(C)C [Compound 120, 3-chloro-5-(1-isobutyl-5-((1R,5S,6r)-3-(2-methoxyethyl)-3-azabicyclo[3.1.0]hexan-6-yl)-1H-pyrazol-3-yl)pyri-din-2-amine] | 0.03
COCCN1C[C@@H]2[C@H](C1)[C@H]2c1cc(-c2cnc(N)c(Cl)c2)nn1CC1CC1(F)F (stereo partly drawn) [Compound 121, 3-chloro-5-(1-((2,2-difluorocyclopro-pyl)methyl)-5-((1R,5S,6r)-3-(2-meth-oxyethyl)-3-azabicyclo[3.1.0]hexan-6-yl)-1H-pyrazol-3-yl)pyridin-2-amine] | 0.09
COCCN1C[C@@H]2[C@H](C1)[C@H]2c1cc(-c2cnc(N)c(Cl)c2)nn1CC1CC1 [Compound 123, 3-chloro-5-(1-(cyclopropylmethyl)-5-((1R,5S,6r)-3-(2-methoxyethyl)-3-aza-bicyclo[3.1.0]hexan-6-yl)-1H-pyra-zol-3-yl)pyridin-2-amine] | 0.027
COCCN1C[C@@H]2[C@H](C1)[C@H]2c1cc(-c2cnc(N)c(C(F)(F)F)c2)nn1CC1CCC1 [Compound 124, 5-(1-(cyclobutylmethyl)-5-((1R,5S,6r)-3-(2-methoxyethyl)-3-azabicyclo [3.1.0]hexan-6-yl)-1H-pyrazol-3-yl)-3-(trifluoromethyl)pyridin-2-amine] | 0.027
CC(C)n1nc(-c2cnc(N)c(C(F)(F)F)c2)cc1[C@H]1[C@@H]2CN(CC(C)(C)O)C[C@@H]21 [Compound 128, 1-((1R,5S,6r)-6-(3-(6-amino-5-(trifluoro-methyl)pyridin-3-yl)-1-isopropyl-1H-pyrazol-5-yl)-3-azabicyclo[3.1.0]hexan-3-yl)-2-methylpropan-2-ol] | 0.011
CC(C)n1nc(-c2cnc3[nH]cc(C#N)c3c2)cc1[C@H]1[C@@H]2CN(C3COC3)C[C@@H]21 [Compound 132, 5-(1-isopropyl-5-((1R,5S,6r)-3-(oxetan-3-yl)-3-azabicyclo[3.1.0]hexan-6-yl)-1H-pyrazol-3-yl)-1H-pyrrolo[2,3-b]pyridine-3-carbonitrile] | 0.025
Nc1ncc(-c2cc([C@H]3[C@@H]4CN(C5COC5)C[C@@H]43)n(C3CCCC3)n2)cc1C(F)(F)F [Compound 135, 5-(1-cyclopentyl-5-((1R,5S,6r)-3-(oxetan-3-yl)-3-azabicyclo[3.1.0]hexan-6-yl)-1H-pyrazol-3-yl)-3-(trifluoromethyl)pyridin-2-amine] | 0.0089
Nc1ncc(-c2cc([C@H]3[C@@H]4CN(C5COC5)C[C@@H]43)n(C3CCCC3)n2)cc1Cl [Compound 136, 3-chloro-5-(1-cyclopentyl-5-((1R,5S,6r)-3-(oxetan-3-yl)-3-azabicyclo [3.1.0]hexan-6-yl)-1H-pyrazol-3-yl) pyridin-2-amine] | 0.024
N#Cc1cc(-c2cc([C@H]3[C@@H]4CN(C5COC5)C[C@@H]43)n(C3CCCC3)n2)cnc1N [Compound 138, 2-amino-5-(1-cyclopentyl-5-((1R,5S,6r)-3-(oxetan-3-yl)-3-azabicyclo[3.1.0]hexan-6-yl)-1H-pyrazol-3-yl)nicoti-nitrile] | 0.031
Nc1ncc(-c2cc([C@H]3[C@@H]4CN(C5COC5)C[C@@H]43)n(C3CCCC3)n2)cc1C1CC1 [Compound 139, 5-(1-cyclopentyl-5-((1R,5S,6r)-3-(oxe-tan-3-yl)-3-azabicyclo[3.1.0]hexan-6-yl)-1H-pyrazol-3-yl)-3-cyclopro-pylpyridin-2-amine] | 0.037
CC(C)n1nc(-c2cnc(N)c(Cl)c2)cc1[C@H]1[C@@H]2CN(C3COC3)C[C@@H]21 [Compound 140, 3-chloro-5-(1-isopropyl-5-((1R,5S,6r)-3-(oxetan-3-yl)-3-azabicyclo[3.1.0]hexan-6-yl)-1H-pyrazol-3-yl)pyridin-2-amine] | 0.04
CC(C)n1nc(-c2cnc(N)c(C3CC3)c2)cc1[C@H]1[C@@H]2CN(C3COC3)C[C@@H]21 [Compound 142, 3-cyclopropyl-5-(1-isopropyl-5-((1R,5S,6r)-3-(oxetan-3-yl)-3-azabicyclo [3.1.0]hexan-6-yl)-1H-pyrazol-3-yl) pyridin-2-amine] | 0.022
CC(C)n1nc(-c2cnc(N)c(C#N)c2)cc1[C@H]1[C@@H]2CN(C3COC3)C[C@@H]21 [Compound 144, 2-amino-5-(1-isopropyl-5-((1R,5 S,6r)-3-(oxetan-3-yl)-3-azabicyclo[3.1.0]hexan-6-yl)-1H-pyrazol-3-yl)nicotinonitrile] | 0.022

Stronger by Ki, values ahead:

Ki [µM] | Compound
0.0056 | CC(=O)N1C[C@@H]2[C@H](C1)[C@H]2c1cc(-c2cnc(N)c(C(F)(F)F)c2)nn1C(C)C [Compound 115, 1-((1R,5S,6r)-6-(3-(6-amino-5-(trifluoro-methyl)pyridin-3-yl)-1-isopropyl-1H-pyrazol-5-yl)-3-azabicyclo[3.1.0]hexan-3-yl)ethanone]
0.0055 | COCCN1C[C@@H]2[C@H](C1)[C@H]2c1cc(-c2cnc(N)c(OC(F)F)c2)nn1C(C)C [Compound 119, 3-(difluoromethoxy)-5-(1-isopropyl-5-((1R,5S,6r)-3-(2-methoxyethyl)-3-azabicyclo[3.1.0]hexan-6-yl)-1H-py-razol-3-yl)pyridin-2-amine]
0.0079 | COCCN1C[C@@H]2[C@H](C1)[C@H]2c1cc(-c2cnc(N)c(C(F)(F)F)c2)nn1CC1CC1 [Compound 122, 5-(1-(cyclopropylmethyl)-5-((1R,5S, 6r)-3-(2-methoxyethyl)-3-azabicyclo [3.1.0]hexan-6-yl)-1H-pyrazol-3-yl)-3-(trifluoromethyl)pyridin-2-amine]
0.0058 | COCCN1C[C@@H]2[C@H](C1)[C@H]2c1cc(-c2cnc(N)c(OC(F)(F)F)c2)nn1C(C)C [Compound 125, 5-(1-isopropyl-5-((1R,5S,6r)-3-(2-meth-oxyethyl)-3-azabicyclo[3.1.0]hex-an-6-yl)-1H-pyrazol-3-yl)-3-(trifluoro-methoxy)pyridin-2-amine]
0.0019 | COCCN1C[C@@H]2[C@H](C1)[C@H]2c1cc(-c2cnc(N)c(C(F)(F)F)c2)nn1CC(F)(F)F [Compound 126, 5-(5-((1R,5S,6r)-3-(2-methoxyethyl)-3-azabicyclo[3.1.0]hexan-6-yl)-1-(2,2,2-trifluoroethyl)-1H-pyrazol-3-yl)-3-(trifluoromethyl)pyridin-2-amine]
0.0059 | CC(C)n1nc(-c2cnc(N)c(C(F)(F)F)c2)cc1[C@H]1[C@@H]2CN(CCC#N)C[C@@H]21 [Compound 127, 3-((1R,5S,6r)-6-(3-(6-amino-5-(trifluoro-methyl)pyridin-3-yl)-1-isopropyl-1H-pyrazol-5-yl)-3-azabicyclo[3.1.0]hexan-3-yl)propanenitrile]
0.0013 | COCC(C)N1C[C@@H]2[C@H](C1)[C@H]2c1cc(-c2cnc(N)c(C(F)(F)F)c2)nn1C(C)C (stereo partly drawn) [Compound 129, 5-(1-isopropyl-5-((1R,5S,6r)-3-(1-meth-oxypropan-2-yl)-3-azabicyclo[3.1.0]hexan-6-yl)-1H-pyrazol-3-yl)-3-(trifluoromethyl)pyridin-2-amine]
0.0056 | CC(C)OC(=O)N1C[C@@H]2[C@H](C1)[C@H]2c1cc(-c2cnc(N)c(C(F)(F)F)c2)nn1C(C)C [Compound 130, (1R,5S,6r)-isopropyl 6-(3-(6-amino-5-(trifluoromethyl)pyr-ridin-3-yl)-1-isopropyl-1H-pyrazol-5-yl)-3-azabicyclo[3.1.0]hexane-3-car-boxylate]
0.0044 | CC(CC#N)N1C[C@@H]2[C@H](C1)[C@H]2c1cc(-c2cnc(N)c(C(F)(F)F)c2)nn1C(C)C (stereo partly drawn) [Compound 131, 3-((1R,5S,6r)-6-(3-(6-amino-5-(trifluoro-methyl)pyridin-3-yl)-1-isopropyl-1H-pyrazol-5-yl)-3-azabicyclo[3.1.0]hexan-3-yl)butanenitrile]
0.0004 | CC(C)n1nc(-c2cnc3[nH]cc(C(F)(F)F)c3c2)cc1[C@H]1[C@@H]2CN(C3COC3)C[C@@H]21 [Compound 133, 5-(1-isopropyl-5-((1R,5S,6r)-3-(oxe-tan-3-yl)-3-azabicyclo[3.1.0]hexan-6-yl)-1H-pyrazol-3-yl)-3-(trifluorometh-yl)-1H-pyrrolo[2,3-b]pyridine]
0.0074 | Nc1ncc(-c2cc([C@H]3[C@@H]4CN(C5COC5)C[C@@H]43)n(C3CCCC3)n2)cc1OC(F)F [Compound 137, 5-(1-cyclopentyl-5-((1R,5S,6r)-3-(oxe-tan-3-yl)-3-azabicyclo[3.1.0]hexan-6-yl)-1H-pyrazol-3-yl)-3-(difluoro-methoxy)pyridin-2-amine]
0.008 | CC(C)n1nc(-c2cnc(N)c(OC(F)F)c2)cc1[C@H]1[C@@H]2CN(C3COC3)C[C@@H]21 [Compound 141, 3-(difluoromethoxy)-5-(1-isopropyl-5-((1R,5S,6r)-3-(oxetan-3-yl)-3-aza-bicyclo[3.1.0]hexan-6-yl)-1H-pyrazol-3-yl)pyridin-2-amine]
